Results reported in patent US20040033213A1, “Methods of modulating dendritic cells using adjuvants” (Corixa Corporation, priority 2002, published 2004).

Columns and labels:
Type in all cases: cell-based
[1] = tested on: Human d7 Cultured Dendritic Cells; assay: Flow cytometry phenotype analysis of human d7 cultured dendritic cells after 24 h stimulation; conditions: LPS 10 ng/ml, others 100 ng/ml; for HLA-DR MFI: 7 day DCs, 24 h stimulation
[2] = tested on: 6-7 day cultured human dendritic cells; assay: ELISA of cytokines (IL-12 p40, IL-12 p70, TNF-α) in 22 h induction supernatants of cultured human dendritic cells; conditions: for IL-12 p40 / IL-12 p70 / TNF-α: 22 Hrs
Source text: Recent articles have described how human dendritic cells can be derived in vitro from CD14 positive monocyte precursors in peripheral blood. A “buffy coat” preparation can now be commonly obtained from a unit of normal human peripheral blood from a blood bank on request. The leukocyte fraction was harvested from this buffy coat preparation using standard ficoll centrifugation techniques. Subsequently, the leukocyte fraction was labeled with anti-CD 14 antibody coupled to magnetic microbeads. This preparation was then passed over a magnet (Miltanyi Biotech) and CD14 positive monocytes were collected. These CD14 positive monocyte precursors were then cultured for 5-7 days in vitro (5×10^5 cells/ml) with GM-CSF (20 ng/ml) for the duration of the culture. […] After the 24 hour in vitro stimulation culture, cells were washed twice and stained with a panel of monoclonal antibodies specific for different cell surface activation and co-receptor molecules found on mature, activated DCs.
Supernatants from DCs stimulated with LPS, MPL® immunostimulant-S, RC-527, RC-529, and RC-544 were collected and tested by ELISA analysis for cytokines.

[3] = tested on: cultured human DCs + autologous T cells
[4] = tested on: cultured human dendritic cells (DC); assay: Flow cytometry of cell surface activation markers on human DCs restimulated 72 hours with AGPs (titration)
Description: Dendritic cells are developed in-vitro from human CD14+ monocyte precursors using standard 7 day GM-CSF ([…]) and IL-4 ([…]) culture conditions. The cultured DCs are >90% CD11c^+/HLA-DR^+/lineage^− by flow cytometry analysis. FIGS. 15-18 show the results of flow cytometry analysis of gated CD11c^+/HLA-DR^+/lineage^− human DCs after they were restimulated in-vitro for 72 hours in the presence of selected AGPs at a titration range of 0.1 μg/ml-2 μg/ml. Data is expressed as the percent of gated DCs which are positive for the indicated marker (y-axis) versus the logo10 of the AGP or lipid A concentration. R595 LPS was used in each induction at 10 ng/ml as a positive control—the negative control was unstimulated human dendritic cells cultured for 72 hours in the same medium conditions used for AGP stimulation. Data was analyzed using non-linear regression analysis—all data was modeled using a 3rd order polynomial to determiine the best curve fit.

[5] = Exp. # 092398, Day 7, LPS 10 ng/ml, others 100 ng/ml
[6] = Exp. # 093098, LPS 10 ng/ml, others 100 ng/ml
[7] = single analysis, one normal donor

Compound: CCCCCCCCCCCC(CC(=O)NC(COC1OC(CO)C(OP(=O)(O)O)C(OC(=O)CC(CCCCCCCCCCC)OC(=O)CCCCCCCCC)C1NC(=O)CC(CCCCCCCCCCC)OC(=O)CCCCCCCCC)C(=O)O)OC(=O)CCCCCCCCC (stereo not drawn) [RC-527]
- CD 1a % positive cells ([1]; Exp. 091698, 24 h): 93.5%
- CD 1a MFI ([1]; Exp. 091698, 24 h): 8.71
- CD 4 % positive cells ([1]; Exp. 091698, 24 h): 69.5%
- CD 4 MFI ([1]; Exp. 091698, 24 h): 2.33
- CD 14 % positive cells ([1]; Exp. 091698, 24 h): 4.2%
- CD 35 % positive cells ([1]; Exp. 091698, 24 h): 49.4%
- CD 35 MFI ([1]; Exp. 091698, 24 h): 2.74
- CD 40 MFI ([1]; Exp. 091698, 24 h): 43.0
- CD 44 MFI ([1]; Exp. 091698, 24 h): 329
- CD 54 MFI ([1]; Exp. 091698, 24 h): 34.9
- CD 62 L % positive cells ([1]; Exp. 091698, 24 h): 11.2%
- CD 69 % positive cells ([1]; Exp. 091698, 24 h): 16.1%
- CD 80 % positive cells ([1]; Exp. 091698, 24 h): 99.5%
- CD 80 MFI ([1]; Exp. 091698, 24 h): 8.37
- CD 83 % positive cells ([1]; Exp. 091698, 24 h): 97.0%
- CD 83 MFI ([1]; Exp. 091698, 24 h): 3.52
- CD 86 % positive cells ([1]; Exp. 091698, 24 h): 99.8%
- CD 86 MFI ([1]; Exp. 091698, 24 h): 18.1
- CD 95 % positive cells ([1]; Exp. 091698, 24 h): 93.6%
- CD 95 MFI ([1]; Exp. 091698, 24 h): 1.61
- HLA-DR MFI ([1]; Exp. 091698): 74.2
- CD 1a % positive cells ([1]; Exp. 092398, 24 h): 84.1%
- CD 1a MFI ([1]; Exp. 092398, 24 h): 5.57
- CD 4 % positive cells ([1]; Exp. 092398, 24 h): 69.5%
- CD 4 MFI ([1]; Exp. 092398, 24 h): 2.66
- CD 14 % positive cells ([1]; Exp. 092398, 24 h): 4.3%
- CD 35 % positive cells ([1]; Exp. 092398, 24 h): 65.1%
- CD 35 MFI ([1]; Exp. 092398, 24 h): 3.02
- CD 40 MFI ([1]; Exp. 092398, 24 h): 35.0
- CD 54 MFI ([1]; Exp. 092398, 24 h): 42.6
- CD 62 L % positive cells ([1]; Exp. 092398, 24 h): 13.6%
- CD 69 % positive cells ([1]; Exp. 092398, 24 h): 10.5%
- CD 80 % positive cells ([1]; Exp. 092398, 24 h): 99.4%
- CD 80 MFI ([1]; Exp. 092398, 24 h): 12.7
- CD 83 % positive cells ([1]; Exp. 092398, 24 h): 97.6%
- CD 83 MFI ([1]; Exp. 092398, 24 h): 3.57
- CD 86 % positive cells ([1]; Exp. 092398, 24 h): 99.9%
- CD 86 MFI ([1]; Exp. 092398, 24 h): 28.0
- CD 95 % positive cells ([1]; Exp. 092398, 24 h): 94.8%
- CD 95 MFI ([1]; Exp. 092398, 24 h): 1.78
- αC5aR + GAR Alexa % positive cells ([1]; Exp. 092398, 24 h): 42.3%
- CD 44 MFI ([1]; Exp. 092398, 24 h, values printed with a trailing +): 499+
- GAR-Alexa % positive cells ([1]; Exp. 092398, 24 h, secondary reagent staining): 2.9%
- HLA-DR MFI ([1]; Exp. 092398): 107.8
- CCR 6 % positive cells ([1]; Exp. 093098, 24 h): 4.0%
- CD 1a % positive cells ([1]; Exp. 093098, 24 h): 80.3%
- CD 1a MFI ([1]; Exp. 093098, 24 h): 6.83
- CD 3 % positive cells ([1]; Exp. 093098, 24 h): 28.5%
- CD 3 MFI ([1]; Exp. 093098, 24 h): 3.89
- CD 4 % positive cells ([1]; Exp. 093098, 24 h): 75.2%
- CD 4 MFI ([1]; Exp. 093098, 24 h): 3.06
- CD 11c % positive cells ([1]; Exp. 093098, 24 h): 92.6%
- CD 11c MFI ([1]; Exp. 093098, 24 h): 6.77
- CD 14 % positive cells ([1]; Exp. 093098, 24 h): 3.3%
- CD 40 MFI ([1]; Exp. 093098, 24 h): 34.9
- CD 54 MFI ([1]; Exp. 093098, 24 h): 47.0
- CD 62 L % positive cells ([1]; Exp. 093098, 24 h): 3.0%
- CD 80 % positive cells ([1]; Exp. 093098, 24 h): 98.9%
- CD 80 MFI ([1]; Exp. 093098, 24 h): 13.1
- CD 83 % positive cells ([1]; Exp. 093098, 24 h): 92.6%
- CD 83 MFI ([1]; Exp. 093098, 24 h): 3.63
- CD 86 % positive cells ([1]; Exp. 093098, 24 h): 99.5%
- CD 86 MFI ([1]; Exp. 093098, 24 h): 27.4
- CD 123 % positive cells ([1]; Exp. 093098, 24 h): 52.9%
- CD 123 MFI ([1]; Exp. 093098, 24 h): 1.99
- αC5aR + Alexa 488 % positive cells ([1]; Exp. 093098, 24 h): 42.7%
- αC5aR + Alexa 488 MFI ([1]; Exp. 093098, 24 h): 8.17
- HLA-DR MFI ([1]; Exp. 093098): 172.9
- IL-12 p40 ([2]; Exp. # 091698, LPS 10 ng/ml, others 100 ng/ml): 202,200 pg/mL/5 × 10^5 Cells
- IL-12 p70 ([2]; Exp. # 092398 (second line, Day7), LPS 10 ng/ml, others 100 ng/ml): 201.4 pg/ml/5 × 10^5 Cells
- IL-12 p40 [2, 5]: 163,000 pg/mL/5 × 10^5 Cells
- TNF-α [2, 5]: 10,750 pg/mL/5 × 10^5 Cells
- IL-12 p70 ([2]; Exp. # 092398 as printed (first line of section), LPS 10 ng/ml, others 100 ng/ml): 194.0 pg/ml/5 × 10^5 Cells
- IL-12 p70 ([2]; Exp. # 092398 as printed (third line of section), LPS 10 ng/ml, others 100 ng/ml): 168.9 pg/ml/5 × 10^5 Cells
- TNF-α ([2]; Exp. # 093098 (third line of section), LPS 10 ng/ml, others 100 ng/ml): 7,020 pg/mL/5 × 10^5 Cells
- IL-12 p40 [2, 6]: 107,600 pg/mL/5 × 10^5 Cells
- TNF-α [2, 6]: 4,000 pg/mL/5 × 10^5 Cells
- IL-12 (p40) expression (in words) ([2]; all three experiments, LPS 10 ng/ml, others 100 ng/ml): in every case a potent stimulator of IL-12 (p40)
- IL-12 (p70) (in words) ([2]; the one donor in which LPS and MPL-S gave a significant amount): high levels of IL-12 (p70)
- IL-12 (p70) expression (in words) ([2]; the other two experiments (different normal donors)): significant levels of IL-12 (p70) expression
- TNF-α secretion (in words) ([2]; three donors): very strong TNF-α effect in all three donors
- T cell proliferation / DC activation, CPM 3H-thymidine response (in words) [3]: highest levels of DC activation compared to MPL® immunostimulant
- cell surface expression of CD80 (in words) ([4]; 72 hours, titration 0.1-2 μg/ml, FIG. 15): highest level of increased cell surface expression
- DC expression of CD83 (in words) ([4]; 72 hours, titration 0.1-2 μg/ml, FIG. 16): highest DC expression levels
- cell surface expression of CD40 (in words) ([4]; 72 hours, titration 0.1-2 μg/ml, FIG. 17): highest elevated cell surface expression
- concentration at which the effect is usually already maximized [4, 7]: 100 ng/mL
- overall induction of DC maturation and co-stimulatory molecule expression (in words) [4, 7]: strongest induction of DC maturation and co-stimulatory molecule expression of all the AGPs tested
